According to patent US10203327B2, “Organic compounds” (Novartis AG, priority 2013, dated 2019):
Where a SMILES comes first, the peptide text is derived from it.

Assays:
human GPR15 [1] = target: T1, human GPR15 (Homo sapiens, UniProt P49685); test: Aequorin assay on human GPR15 stably expressed in recombinant cells; type: cell-based
T1 construct: expressed in transfected cells; host or cells: CHO-Aeq (with or without Galpha16), vector pEFIN3
T1 sequence (P49685 1-360): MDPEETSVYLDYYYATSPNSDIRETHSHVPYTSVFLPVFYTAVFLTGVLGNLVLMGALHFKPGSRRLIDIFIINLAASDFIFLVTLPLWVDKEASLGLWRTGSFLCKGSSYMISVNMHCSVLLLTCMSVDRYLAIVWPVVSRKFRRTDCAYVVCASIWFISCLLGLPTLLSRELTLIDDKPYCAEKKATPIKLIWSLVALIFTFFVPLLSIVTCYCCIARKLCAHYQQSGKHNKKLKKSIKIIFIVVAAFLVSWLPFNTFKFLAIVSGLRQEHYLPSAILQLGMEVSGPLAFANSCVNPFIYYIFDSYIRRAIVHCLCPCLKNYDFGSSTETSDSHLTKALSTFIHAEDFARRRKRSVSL
Text: (§1) Throughout this specification, the term “Aequorin assay” refers to methods for performing high throughput functional screening of GPCRs. Said methods employ recombinant cell lines stably transfected with plasmids encoding apoaequorin, a GPCR of interest and if necessary, a recombinant G protein to redirect the coupling of the GPCR toward calcium signaling. After clonal selection, the best clones are selected on the basis of pharmacological characterization, high signal to background ratio and stability of expression. This method has been developed by Euroscreen SA, 47 Rue Adrienne Bolland, 6041 Gosselies, Belgium.
(§2) Plasmids encoding human and mouse GPR15 were stably transfected in CHO, 1321 N1 and HEK293 cells expressing the apoaequorin (CHO-Aeq, 1321-N1-Aeq and HEK-Aeq). GPR15 mRNA sequence integrities were checked using RT-PCR at T0 and T30 culture times in CHO cells.
An hGPR15 CHO-Gα16Aeq cell line was used for the Aequorin screening of Euroscreen proprietary libraries of natural ligands and tissue extracts collection. Specific activation of GPR15 over more than 20 other orphan GPCRs was identified in fractions from a colon aqueous extract.
(§3) QKPQLWVVPGALPQV peptide (SEQ ID NO: 2), corresponding to a putative tryptic C-term fragment (43-57) of the porcine peptide, was first synthesised for GPR15 evaluation.
(§4) Both peptides (i.e., those produced via CHO production and in vitro production in the agglutinin wheat germ extract system) were tested for GPR15 activation using Aequorin dose response curves.

human GPR23 = target: T2, human GPR23 (Homo sapiens, UniProt Q99677); test: Aequorin assay on unrelated receptor hGPR23 (selectivity); type: cell-based; conditions: CHO-Aeq cells expressing hGPR23
T2 construct: expressed in transfected cells; host or cells: CHO-Aeq Galpha16
T2 sequence (Q99677 whole entry): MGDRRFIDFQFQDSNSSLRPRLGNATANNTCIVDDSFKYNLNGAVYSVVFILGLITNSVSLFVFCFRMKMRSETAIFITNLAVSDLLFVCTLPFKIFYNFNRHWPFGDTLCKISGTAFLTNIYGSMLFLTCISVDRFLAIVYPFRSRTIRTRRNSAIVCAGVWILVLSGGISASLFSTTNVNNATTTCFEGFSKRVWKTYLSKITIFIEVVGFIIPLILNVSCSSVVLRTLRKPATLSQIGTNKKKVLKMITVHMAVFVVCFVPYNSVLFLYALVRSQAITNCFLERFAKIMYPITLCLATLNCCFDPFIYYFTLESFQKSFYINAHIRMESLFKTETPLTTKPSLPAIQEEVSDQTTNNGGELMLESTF
Text: as §1, §3, §4

mouse GPR15 = target: T3, mouse GPR15 (Mus musculus, UniProt Q0VDU3); test: Aequorin assay on mouse GPR15 stably expressed in CHO-Aeq cells; type: cell-based; conditions: CHO and IV produced polypeptide
T3 construct: expressed in transfected cells; host or cells: CHO-Aeq (with or without Galpha16), vector pEFIN5
T3 sequence (Q0VDU3 1-360): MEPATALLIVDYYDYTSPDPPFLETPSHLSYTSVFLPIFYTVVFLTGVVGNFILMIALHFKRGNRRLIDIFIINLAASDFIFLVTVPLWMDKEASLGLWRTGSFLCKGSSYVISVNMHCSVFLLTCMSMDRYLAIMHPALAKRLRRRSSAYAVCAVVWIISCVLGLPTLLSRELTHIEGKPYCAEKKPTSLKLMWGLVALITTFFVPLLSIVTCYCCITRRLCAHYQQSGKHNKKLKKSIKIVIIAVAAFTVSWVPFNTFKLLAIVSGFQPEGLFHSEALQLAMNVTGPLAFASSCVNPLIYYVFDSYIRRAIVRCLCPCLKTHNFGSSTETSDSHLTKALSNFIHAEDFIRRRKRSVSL
Text: as §1, §2, §3

human GPRC5C = target: T4, human GPRC5C (Homo sapiens, UniProt Q9NQ84); test: Aequorin assay on unrelated receptor GPRC5C (selectivity); type: cell-based; conditions: CHO-Aeq cells expressing GPRC5C
T4 construct: expressed in transfected cells; host or cells: CHO-Aeq Galpha16
T4 sequence (Q9NQ84 24-441): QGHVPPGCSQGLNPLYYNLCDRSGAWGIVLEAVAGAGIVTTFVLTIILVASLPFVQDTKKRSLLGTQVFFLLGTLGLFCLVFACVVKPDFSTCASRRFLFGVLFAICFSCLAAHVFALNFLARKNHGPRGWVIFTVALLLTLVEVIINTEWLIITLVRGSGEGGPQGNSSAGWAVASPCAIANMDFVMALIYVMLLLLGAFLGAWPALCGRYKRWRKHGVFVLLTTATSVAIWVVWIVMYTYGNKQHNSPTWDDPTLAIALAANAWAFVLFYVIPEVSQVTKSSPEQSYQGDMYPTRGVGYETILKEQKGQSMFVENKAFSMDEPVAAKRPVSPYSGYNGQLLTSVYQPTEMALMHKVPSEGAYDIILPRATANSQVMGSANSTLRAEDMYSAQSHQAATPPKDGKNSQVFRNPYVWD

human GPR15 [2] = target: T1, human GPR15; test: cAMP HTRF assay on CHO and HEK cells stably expressing hGPR15; type: cell-based
SW48 cells [3] = test: Intracellular calcium in SW48 colon cancer cells; type: cell-based, human; conditions: after priming
SW48 cells [4] = test: Forskolin-induced cAMP in SW48 colon cancer cells; type: cell-based, human; conditions: pertussis toxin sensitive
[5] = system: human neonatal dermal fibroblasts; test: IP-10 (CXCL10) release from human neonatal dermal fibroblasts; type: cell-based; conditions: GPR15-independent
Text: GPR15L action is also mediated by a GPR15-independent mechanism in human neonatal dermal fibroblasts. […] Interferon gamma-induced protein 10 (IP-10), also known as C—X—C motif chemokine 10 (CXCL10), is secreted by monocytes, endothelial cells, and fibroblasts in response to IFN-γ. CXCL10 binds to the cell surface chemokine receptor CXCR3 and is implicated in such processes as chemoattraction for monocytes/macrophages, T cells, NK cells, and dendritic cells, promotion of T cell adhesion to endothelial cells, antitumor activity, and inhibition of bone marrow colony formation and angiogenesis.

[6] = system: subjects treated for psoriasis; conditions: after 4 weeks; cited from earlier work

Row | Compound | activation of hGPR15 CHO cell line (human GPR15 [1]; hGPR15 CHO cell line, compared with EC50 of ~2 μM) | calcium/luminescence response of hGPR23 cells (human GPR23) | activation of hGPR15 (human GPR15 [1]; CHO-Aeq cells, ligand from CHO production or IV preparation) | activation of hGPR15 in HEK-Aeq Gα16 cells (human GPR15 [1]; stably transfected HEK-Aeq Gα16 cells) | activation of mouse GPR15 receptor (mouse GPR15) | calcium signal on GPRC5C (human GPRC5C) | activation of hGPR15 (cAMP HTRF assay) (human GPR15 [2]) | intracellular calcium levels (SW48 cells [3]) | forskolin-induced cAMP elevation (SW48 cells [4]) | IP-10 release [5] | c10orf99 mRNA [6] | reduction in the Psoriasis Area and Severity Index (PAST) [6] [%]
1 | CC(C)C[C@H](NC(=O)[C@H](CCC(N)=O)NC(=O)[C@@H]1CCCN1C(=O)[C@H](CCCCN)NC(=O)[C@@H](N)CCC(N)=O)C(=O)N[C@@H](Cc1c[nH]c2ccccc12)C(=O)N[C@H](C(=O)N[C@H](C(=O)N1CCC[C@H]1C(=O)NCC(=O)N[C@@H](C)C(=O)N[C@@H](CC(C)C)C(=O)N1CCC[C@H]1C(=O)N[C@@H](CCC(N)=O)C(=O)N[C@H](C(=O)O)C(C)C)C(C)C)C(C)C [QKPQLWVVPGALPQV peptide, QKPQLWVVPGALPQV] (H-QKPQLWVVPGALPQV-OH; N-terminus and C-terminus assumed) | same affinity | failed in responding | – | – | – | – | – | – | – | – | – | –
2 | KRRPAKAWSGRRTRLCCHRVPSPNSTNLKGHHVRLCKPCK LEPEPRLWVVPGALPQV (KRRPAKAWSGRRTRLCCHRVPSPNSTNLKGHHVRLCKPCKLEPEPRLWVVPGALPQV) [c10orf99, made by CHO production, in vitro translation or synthesis] | – | failed to induce any calcium signal | specifically activated | confirmed | Activation of mouse GPR15 receptor was observed | failed to induce any calcium signal | activation | dose response dependent increase in intracellular calcium levels | pertussis toxin sensitive decrease in forskolin-induced cAMP elevation | induces IP-10-release | – | –
3 | secukinumab: fully human monoclonal antibody that selectively binds to and neutralizes IL-17A | – | – | – | – | – | – | – | – | – | – | significant decrease | 58
